Our source for the MIC values is patent US4263291A, “3,7-Disubstituted-3-cephem-4-carboxylic acid compounds and processes for the preparation thereof” (Fujisawa Pharmaceutical Co., Ltd., priority 1976, dated 1981).

Converted amounts (≈) assume the structure as drawn. Read-outs that look alike come from different tables or passages of the source.

What all share (experiment): In vitro antibacterial activity, two-fold agar-plate dilution method
Type in all cases: cell-based

The test system of one assay is Staph. aureus 209P JC-1. The following applies: Staphylococcus aureus, read-out: MIC (minimal inhibitory concentration). The procedure: (§1) In vitro antibacterial activity was determined by the two-fold agar-plate dilution method as described below.
(§2) One loopful of an overnight culture of each test strain in Trypticase-soy broth (10^8 viable cells per ml.) was streaked on heart infusion agar (HI-agar) containing graded concentrations of antibiotics, and the minimal inhibitory concentration (MIC) was expressed in terms of μg/ml. aft er incubation at 37° C. for 20 hours.

The test system of another assay is Sh. flexneri 2a. The following applies: Shigella flexneri, HI-agar, 37° C., 20 hours, read-out: MIC (minimal inhibitory concentration). The method, then:
as §1, §2

The next assay deals with Sal. enteritidis. The following applies: Salmonella enterica, HI-agar, 37° C., 20 hours, read-out: MIC (minimal inhibitory concentration). The method, then:
as §1, §2

The next assay deals with E. coli NIHJ JC-2. Conditions: Escherichia coli, read-out: MIC (minimal inhibitory concentration). The method, then:
as §1, §2

[1] abbreviates: Staph. aureus 209P JC-1, HI-agar, 37° C., 20 hours.
The mark [2] stands for this setting: NIHJJC2, E. coli NIHJ JC-2, HI-agar, 37° C., 20 hours.

Turning to `CO/N=C(\C(=O)NC1C(=O)N2C(C(=O)O)=C(CSc3nnnn3C)CSC12)c1csnn1` (stereo not drawn) [Test Compound (1), 7-[2-Methoxyimino-2-(1,2,3-thiadiazol-4-yl)acetamido]-3-(1-methyl-1H-tetrazol-5-yl)thiomethyl-3-cephem-4-carboxylic acid (syn isomer)], the MIC was determined as 3.13 µg/mL (≈ 6.29 µM) in the assay on Staph. aureus 209P JC-1 (setting [1]), 1.56 µg/mL (≈ 3.14 µM) in the assay on Sh. flexneri 2a, 0.2 µg/mL (≈ 0.402 µM) in the assay with Sal. enteritidis and 0.78 µg/mL (≈ 1.57 µM) with E. coli NIHJ JC-2 (setting [2]).
With `CO/N=C(/C(=O)NC1C(=O)N2C(C(=O)O)=C(CSc3nnnn3C)CSC12)c1csnn1` (stereo not drawn) [Test Compound (2), 7-[2-Methoxyimino-2-(1,2,3-thiadiazol-4-yl)acetamido]-3-(1-methyl-1H-tetrazol-5-yl)thiomethyl-3-cephem-4-carboxylic acid (anti isomer)], the MIC in the assay with Staph. aureus 209P JC-1 (209P, 20 h) worked out at 12.5 µg/mL (≈ 25.1 µM); in the assay with Sh. flexneri 2a, 12.5 µg/mL (≈ 25.1 µM); with Sal. enteritidis, 6.25 µg/mL (≈ 12.6 µM); in the assay with E. coli NIHJ JC-2 (setting [2]), 25 µg/mL (≈ 50.2 µM).
Regarding `Cn1nnnc1SCC1=C(C(=O)O)N2C(=O)C(NC(=O)/C(=N\O)c3cnsn3)C2SC1` (stereo not drawn) [Test Compound (3), 7-[2-Hydroxyimino-2-(1,2,5-thiadiazol-3-yl)acetamido]-3-(1-methyl-1H-tetrazol-5-yl)thiomethyl-3-cephem-4-carboxylic acid (syn isomer)], the MIC came to 0.78 µg/mL (≈ 1.61 µM) with Staph. aureus 209P JC-1 (setting [1]), 0.39 µg/mL (≈ 0.807 µM) with Sh. flexneri 2a, 1.56 µg/mL (≈ 3.23 µM) with Sal. enteritidis and 3.13 µg/mL (≈ 6.47 µM) with E. coli NIHJ JC-2 (setting [2]).
As to `Cn1nnnc1SCC1=C(C(=O)O)N2C(=O)C(NC(=O)/C(=N\O)c3cnsc3)C2SC1` (stereo not drawn) [Test Compound (4), 7-[2-Hydroxyimino-2-(isothiazol-4-yl)acetamido]-3-(1-methyl-1H-tetrazol-5-yl)thiomethyl-3-cephem-4-carboxylic acid (syn isomer)], the MIC with Staph. aureus 209P JC-1 (setting [1]) is 0.39 µg/mL (≈ 0.808 µM); with Sh. flexneri 2a, 0.39 µg/mL (≈ 0.808 µM); with Sal. enteritidis, 0.78 µg/mL (≈ 1.62 µM); in the assay with E. coli NIHJ JC-2 (NIHJJC2, 20 h) it was 1.56 µg/mL (≈ 3.23 µM).
